Results reported in patent EP0035641B1, “Cystein derivatives, process for their preparation and medicines containing them” (ALFA FARMACEUTICI S.p.A., priority 1980, dated 1981).
Like-named read-outs stand apart in the source and are kept apart here.

Experiments:
[1] = test system: Carraghenin-Ödem; experiment: Carrageenan-induced oedema test in rats (method of Winter et al.); type: in vivo; settings: Ratten
Description: Die entzündungshemmende Wirkung wurde an Hand des Versuches mit dem von Carraghenin hervorgerufenen beziehungsweise induzierten Ödem (Carraghenin-Ödem) an Ratten, welcher im wesentlichen nach der Verfahrensweise von C. A. Winter und Mitarbeitern, J. Pharm. Expt. Ther. […] durchgeführt wurde, bewertet. Die Ergebnisse dieser Versuche sind in der folgenden Tabelle I zusammengestellt.

[2] = test system: Granulome; experiment: Cotton pellet granuloma test (method of Meier et al.); type: in vivo
Description: Ein weiterer Nachweis der starken entzündungshemmenden Wirkung der erfindungsgemäßen Verbindungen erfolgte mit Hilfe des Granulomwattekügelchenversuches, welcher im wesentlichen wie von R. Meier und Mitarbeitern, Experientia, 6 [1950], 1469 beschrieben durchgeführt wurde. Bei diesem Versuch wurden Granuloma durch Einsetzen eines Wattekügelchens in den intraskapularen Bereich des Versuchtieres gebildet. Die Versuchsergebnisse sind in der folgenden Tabelle 11 zusammengestellt.

[3] = test system: durch das Reizmittel hervorgerufene Unterleibsschmerzkrümmungen; experiment: Writhing test in mice (method of Wilkin et al.); type: in vivo, Mäusen; settings: Mäuse; for ED50: Mus musculus, po, read-out: ED50 (Dosen, welche eine 50%ige Verminderung der Zusammenziehung herbeizuführen vermögen)
Protocol: Die schmerzlindernde Wirksamkeit wurde mit Hilfe des »Schmerzkrümmungsversuches« (»writhing test«) an Mäusen im wesentlichen nach der von Wilkin und Mitarbeitern in J. Pharm. Expt. Ther., 133 [1961 ], 409 beschriebenen Versuchsverfahrensweise bewertet. Repräsentative Versuche zeigten, daß die erfindungsgemäßen Verbindungen bei ihrer Verarbreichung in peroralen Dosen von etwa 30 bis 100 mg/kg gegenüber den Blindversuchen eine 50%ige Hemmung der durch das Reizmittel hervorgerufenen Unterleibsschmerzkrümmungen herbeiführten. Bei diesem Versuch zeigte sich, daß die schmerzlindernde Wirkung der erfindungsgemäßen Verbindung N-Acetyl-S-[D-2-(6'-methoxynaphth-2'-yl)-propionyl]-L-cystein (Verbindung der Beispiele 6 und 7) selbst 4 Stunden nach ihrer Verabreichung beträchtlich war.

With `COC(=O)[C@H](CS)NC(=O)[C@@H](C)c1ccc2cc(OC)ccc2c1` [Beispiel 2, N-[D-2-(6'-Methoxynaphth-2'-yl)-propionyl]-L-cysteinmethylester] the “Hemmung des Carraghenin-Ödemes in %, bezogen auf die Blindversuche” value (from here on “Hemmung des Carraghenin-Ödemes in %”) ([1]; Perorale Dosis 50 mg/kg) was −57%.
In the case of `CCC1Cc2cc(CC(=O)N[C@@H](CS)C(=O)O)ccc2O1` (stereo partly drawn) [Beispiel 3, N-[2-(2'-Äthyl-2',3'-dihydrobenzofuran-5'-yl)-acetyl]-L-cystein], the “Hemmung des Granulomes in %, bezogen auf die Blindversuche” value (from here on “Hemmung des Granulomes in %”) ([2]; Perorale Dosis 40 mg/kg) is reported as −30% and the “Hemmung des Carraghenin-Ödemes in %” value ([1]; Perorale Dosis 50 mg/kg) is reported as −48%.
For `COc1ccc2cc([C@H](C)C(=O)N[C@@H](CS)C(=O)O)ccc2c1` [Beispiel 4, N-[D-2-(6'-Methoxynaphth-2'-yl)-propionyl]-L-cystein], the “Hemmung des Granulomes in %” value ([2]; Perorale Dosis 40 mg/kg) was −24% and the “Hemmung des Granulomes in %” value ([2]; Perorale Dosis 80 mg/kg) was −35%.
In the case of `COc1ccc2cc([C@H](C)C(=O)SC[C@H](NC(C)=O)C(=O)O)ccc2c1` [Beispiel 6 beziehungs-weise 7, N-Acetyl-S-[D-2-(6'-methoxynaphth-2'-yl)-propionyl]-L-cystein], the “Hemmung des Granulomes in %” value ([2]; Perorale Dosis 40 mg/kg) is reported as −28%, the “Hemmung des Granulomes in %” value ([2]; Perorale Dosis 80 mg/kg) is reported as −49% and the “Hemmung des Carraghenin-Ödemes in %” value ([1]; Perorale Dosis 3 mg/kg) is reported as −42%. For the same molecule, the “Hemmung des Carraghenin-Ödemes in %” value ([1]; Perorale Dosis 6 mg/kg) was −42%, the “Hemmung des Carraghenin-Ödemes in %” value ([1]; Perorale Dosis 12 mg/kg) was −45% and the “Hemmung des Carraghenin-Ödemes in %” value ([1]; Perorale Dosis 24 mg/kg) was −58%. For the same molecule, the “schmerzlindernde Wirkung” value ([3]; 4 Stunden nach Verabreichung) was “beträchtlich”, the ED50 ([3]; 0.5 h, nach 30 Minuten) was 25 mg/kg and the ED50 ([3]; 4 h, nach 4 Stunden) was 10 mg/kg.
